Results reported in ChEMBL document CHEMBL3352459, “Synthesis and evaluation of N-acyl-substituted 1,2-benzisothiazol-3-one derivatives as caspase-3 inhibitors” (Bioorg Med Chem, 2014).
pIC50: −log10 of the molar value. Residues, ends and D or L forms follow the SMILES beside them. *: point of attachment. Cbz = O=C(OCc1ccccc1)*; CH2F = FC*

Columns and labels:
Caspase-7 = molecular target: T1, Caspase-7 (Homo sapiens, UniProt P55210); test: Inhibition of recombinant human caspase-7 activity using Ac-DEVD-AMC as substrate preincubated for 10 mins by fluorescence assay
T1 sequence (P55210 whole entry): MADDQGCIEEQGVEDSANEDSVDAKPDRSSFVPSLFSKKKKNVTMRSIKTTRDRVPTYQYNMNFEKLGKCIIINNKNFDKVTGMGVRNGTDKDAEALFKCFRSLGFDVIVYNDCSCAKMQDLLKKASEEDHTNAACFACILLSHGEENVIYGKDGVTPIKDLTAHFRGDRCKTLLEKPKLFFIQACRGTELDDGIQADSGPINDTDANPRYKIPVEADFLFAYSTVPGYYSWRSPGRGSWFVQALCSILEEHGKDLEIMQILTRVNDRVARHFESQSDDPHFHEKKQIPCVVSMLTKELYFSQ

Caspase-3 = molecular target: T2, Caspase-3 (Homo sapiens, UniProt P42574); test: Inhibition of recombinant human caspase-3 activity using Ac-DEVD-AMC as substrate preincubated for 10 mins by fluorescence assay
T2 sequence (P42574 whole entry): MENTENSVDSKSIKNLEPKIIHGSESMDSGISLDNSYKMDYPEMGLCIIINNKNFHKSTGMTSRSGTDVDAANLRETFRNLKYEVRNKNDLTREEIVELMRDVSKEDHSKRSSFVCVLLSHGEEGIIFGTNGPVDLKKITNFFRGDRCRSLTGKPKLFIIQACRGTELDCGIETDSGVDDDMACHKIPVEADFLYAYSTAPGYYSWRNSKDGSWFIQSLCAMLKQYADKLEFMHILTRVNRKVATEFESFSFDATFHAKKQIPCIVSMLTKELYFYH

Jurkat [1] = test: Antiapoptotic activity in camptothecin-induced human Jurkat cells assessed as apoptotic cells at 10 uM after 2 hrs using Annexin V-FITC and 7-AAD by flow cytometry relative to control; assay type: functional
Jurkat [2] = test: Antiapoptotic activity in camptothecin-induced human Jurkat cells assessed as apoptotic cells at 50 uM after 2 hrs using Annexin V-FITC and 7-AAD by flow cytometry relative to control; assay type: functional

Compound	pIC50 (Caspase-7)	pIC50 (Caspase-3)	Activity (Jurkat [1])	Activity (Jurkat [2])
O=C(Cc1ccc(F)cc1)n1sc2ccccc2c1=O	6.22	5.92		
O=C(CCc1ccc(F)cc1)n1sc2ccccc2c1=O	7.22	6.95		
O=C(Cc1ccc(Cl)c(Cl)c1)n1sc2ccccc2c1=O	6.70	6.18		
COc1cccc(CCC(=O)n2sc3ccccc3c2=O)c1	7.27	7.46	36.6%	100%
COc1ccccc1CC(=O)n1sc2ccccc2c1=O	6.68	6.66		
COc1cccc(CC(=O)n2sc3ccccc3c2=O)c1	6.68	6.26		
O=C(Cc1ccc(-c2ccccc2)cc1)n1sc2ccccc2c1=O	6.94	6.85		
O=C(CCc1ccccc1)n1sc2ccccc2c1=O	6.95	6.96		
O=C(Cc1ccc(O)cc1)n1sc2ccccc2c1=O	6.48	6.49		
COc1ccc(CCCC(=O)n2sc3ccccc3c2=O)cc1	7.13	6.41		
O=C(Cc1ccccc1Cl)n1sc2ccccc2c1=O	6.84	6.72		
COC(=O)C[C@H](NC(=O)[C@H](C)NC(=O)[C@@H](NC(=O)OCc1ccccc1)C(C)C)C(=O)CF (Cbz-Val-Ala-Asp(OMe)-CH2F)			40.2%	
CC(=O)N[C@@H](CC(=O)O)C(=O)N[C@@H](CCC(=O)O)C(=O)N[C@H](C(=O)N[C@H](C=O)CC(=O)O)C(C)C	6.81			
COc1ccccc1CCC(=O)n1sc2ccccc2c1=O	7.20	6.86		
O=C(CCCCc1ccccc1)n1sc2ccccc2c1=O	7.00	6.51		
O=C(Cc1cccc(Cl)c1)n1sc2ccccc2c1=O	6.22	6.57		

Continued, in another order:

pIC50 (Caspase-7)	pIC50 (Caspase-3)	Compound	Activity (Jurkat [1])	Activity (Jurkat [2])
6.94	6.90	O=C(CCCc1cccs1)n1sc2ccccc2c1=O		
6.53	6.58	O=C(Cc1ccc2ccccc2c1)n1sc2ccccc2c1=O		
7.14	6.92	Cc1ccc(CCC(=O)n2sc3ccccc3c2=O)cc1		
6.34	6.05	O=C(Cc1cccc(F)c1)n1sc2ccccc2c1=O		
7.11	7.06	O=C(CCc1cccc(F)c1)n1sc2ccccc2c1=O		
6.73	6.65	O=C(Cc1ccc2c(c1)CCO2)n1sc2ccccc2c1=O		
6.23	6.67	O=C(Cc1ccc(Cl)cc1)n1sc2ccccc2c1=O		
7.25	6.63	O=C(CCC(=O)n1sc2ccccc2c1=O)c1cccs1		
6.91	6.73	O=C(Cc1ccccc1F)n1sc2ccccc2c1=O		
6.78	6.74	O=C(CCCc1ccccc1)n1sc2ccccc2c1=O		
6.43	6.70	Cc1ccccc1CC(=O)n1sc2ccccc2c1=O		
6.57	6.53	O=C(Cc1ccccc1)n1sc2ccccc2c1=O		
4.74	4.49	O=C(Cc1cccs1)n1sc2ccccc2c1=O		
6.67	5.87	COc1ccc(CC(=O)n2sc3ccccc3c2=O)cc1		
7.28	7.30	COc1ccc(CCC(=O)n2sc3ccccc3c2=O)cc1	37.5%	100%
6.74	6.47	Cc1cccc(CC(=O)n2sc3ccccc3c2=O)c1		
6.79	6.97	O=C(Nc1ccc(N2CCOCC2)cc1)n1sc2ccccc2c1=O		
6.96	7.02	Cc1cccc(CCC(=O)n2sc3ccccc3c2=O)c1		
7.14	7.24	O=C(CCc1ccc(Cl)cc1)n1sc2ccccc2c1=O		
6.80	7.33	O=C(CCc1ccccc1Cl)n1sc2ccccc2c1=O		
7.06	6.89	O=C(CCc1ccccc1F)n1sc2ccccc2c1=O		
7.01	6.58	Cc1ccc(CCCC(=O)n2sc3ccccc3c2=O)cc1		
6.74	6.67	Cc1ccc(CC(=O)n2sc3ccccc3c2=O)cc1		
